We go through eleven compounds from ChEMBL document CHEMBL1201862, “PubChem BioAssay data set” (2004).

Molecules are shown by their SMILES.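 Following 48 hours of exposure in 96-well plates, responses at five concentrations were used to interpolate endpoints linearly. GI50 = concentration required for 50% inhibition of growth.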 Activity calls are given as the source filed them. No stated cut-off is given here; in the data, active = GI50 up to about 1.1 µM and inactive = higher.

Among the test systems are CAKI-1; EKVX; Hs-578T; M14; MCF7; MDA-MB-435; MOLT-4; NCI-H226; NCI-H23; NCI-H522; NCI/ADR-RES; OVCAR-3; PC-3; RPMI-8226; SK-OV-3; SN12C; SR; UACC-257; UACC-62; A498.
Holding throughout (test): growth of human tumour cells (NCI), 48 h

On to `CC12CCCC(C(=O)O)(C1)[C@H](C(C)(C)C(=O)O)CC2` (stereo partly drawn), for which the GI50 with CAKI-1, with EKVX, in the test on Hs-578T, in the test with M14, in the test on MCF7 and in the test on MDA-MB-435 was > 100 µM (inactive) throughout. Besides, the GI50 with MOLT-4, in the test with NCI-H226, in the test on NCI-H23, in the test with NCI-H522, with NCI/ADR-RES and in the test on OVCAR-3 was > 100 µM (inactive) each time. The GI50 in the test on PC-3, with RPMI-8226, with SK-OV-3, with SN12C, in the test on SR and in the test on UACC-257 was > 100 µM (inactive) each time. Besides, the GI50 in the test on UACC-62 was > 100 µM (inactive).
For `CCOC(=O)c1nc2ccc(C(F)(F)F)cc2nc1NCc1ccc(F)cc1`, the GI50 in the test with CAKI-1 was 41.5 µM (inactive); in the test on EKVX it was 37.8 µM (inactive); with Hs-578T, 21.5 µM (inactive); in the test with M14 it was 48.6 µM (inactive); in the test with MCF7, 30.9 µM (inactive); in the test on MDA-MB-435, 31.9 µM (inactive). Besides, the GI50 is 42.8 µM (inactive) in the test on MOLT-4; 29 µM (inactive) in the test on NCI-H226; 27.5 µM (inactive) in the test on NCI-H23; 18.1 µM (inactive) with NCI-H522; 24 µM (inactive) in the test with NCI/ADR-RES; 50.2 µM (inactive) in the test with OVCAR-3. Also, the GI50 in the test with PC-3 was 29.4 µM (inactive); in the test with RPMI-8226, 23.5 µM (inactive); with SK-OV-3, 43 µM (inactive); in the test on SN12C it was 28.8 µM (inactive); in the test on SR it was 37.8 µM (inactive); in the test on UACC-257, 27.5 µM (inactive). In addition, the GI50 with UACC-62 was 23.1 µM (inactive).
`Cc1cccc2[nH]c3c(c(O)cc4[nH]c5cccc(C)c5c(=O)c43)c(=O)c12`: the GI50 with A498 was > 10 µM (inactive); with CAKI-1, > 10 µM (inactive); in the test with EKVX, 6.53 µM (inactive); with Hs-578T, 7.19 µM (inactive); in the test on M14, 4.47 µM (inactive); in the test with MCF7 it was > 10 µM (inactive). The GI50 in the test with MDA-MB-435 is 4.89 µM (inactive); with MOLT-4, 3.88 µM (inactive); in the test on NCI-H226, 5.16 µM (inactive); in the test with NCI-H23 it was 3 µM (inactive); in the test with NCI-H522, > 10 µM (inactive); with NCI/ADR-RES, > 10 µM (inactive). The GI50 in the test on OVCAR-3 is 6 µM (inactive); with PC-3, 4.06 µM (inactive); in the test with RPMI-8226, > 10 µM (inactive); with SK-OV-3 it was > 10 µM (inactive); with SN12C it was 4.97 µM (inactive); in the test on UACC-257, 4.55 µM (inactive). Besides, the GI50 with UACC-62 was > 10 µM (inactive).
In the case of `COc1ccc(CCn2ccc(=O)c(O)c2C)cc1OC`, the GI50 in the test with CAKI-1 was 2.48 µM (inactive); in the test on EKVX, 24.4 µM (inactive); with Hs-578T, < 0.01 µM (active); with M14 it was 12.2 µM (inactive); in the test with MCF7, 20.5 µM (inactive); with MDA-MB-435 it was 41.6 µM (inactive). Further, the GI50 in the test with MOLT-4 is 16 µM (inactive); in the test with NCI-H23 it was 27.9 µM (inactive); in the test on NCI/ADR-RES, 7.45 µM (inactive); in the test with PC-3, 56.2 µM (inactive); in the test with RPMI-8226 it was 34 µM (inactive); with SK-OV-3 it was 21.2 µM (inactive). For the same compound, the GI50 was 28.4 µM (inactive) with SR and 6.18 µM (inactive) in the test with UACC-257.
On to `Cc1c(O)c(=O)ccn1CCc1ccc(O)cc1`, for which the GI50 was 4.52 µM (inactive) in the test with CAKI-1; 20.4 µM (inactive) in the test with EKVX; 24.3 µM (inactive) in the test with Hs-578T; 17.3 µM (inactive) with M14; 23.9 µM (inactive) in the test on MCF7; 42.2 µM (inactive) in the test on MDA-MB-435. In addition, the GI50 in the test on MOLT-4 was 26.8 µM (inactive); with NCI-H23 it was 35.7 µM (inactive); with NCI/ADR-RES, 8.71 µM (inactive); in the test with OVCAR-3, 11.2 µM (inactive); in the test with PC-3, 25.9 µM (inactive); in the test with RPMI-8226, 14.7 µM (inactive). Also, the GI50 in the test with SK-OV-3 is 24.8 µM (inactive); in the test with SR, 34.6 µM (inactive); in the test with UACC-257, 25.5 µM (inactive); in the test on UACC-62, 0.615 µM (active).
Consider `CN(C)CC/C=C1\c2ccccc2Sc2ccc(Cl)cc21`, for which the GI50 was 14.3 µM (inactive) in the test on A498; 8.11 µM (inactive) in the test on CAKI-1; 10.1 µM (inactive) in the test on EKVX; 14.4 µM (inactive) with Hs-578T; 3.01 µM (inactive) in the test with M14; 15.1 µM (inactive) in the test with MCF7. In addition, the GI50 in the test with MDA-MB-435 was 10.3 µM (inactive); in the test with MOLT-4, 11.5 µM (inactive); with NCI-H226 it was 18.6 µM (inactive); with NCI-H23 it was 15.6 µM (inactive); in the test on NCI-H522, 12.6 µM (inactive); in the test on NCI/ADR-RES it was 13.8 µM (inactive). Moreover, the GI50 is 13.4 µM (inactive) with OVCAR-3; 12.8 µM (inactive) with PC-3; 3.78 µM (inactive) in the test on RPMI-8226; 16.3 µM (inactive) with SK-OV-3; 15.2 µM (inactive) with SN12C; 6.87 µM (inactive) in the test with UACC-257. Also, the GI50 with UACC-62 is 13.6 µM (inactive).
On to `CCOP(=O)(OCC)C(C)(C)OC(=O)NC(F)(F)F`, for which the GI50 in the test on CAKI-1, in the test on EKVX, with Hs-578T, with M14, in the test on MCF7 and with MDA-MB-435 was > 100 µM (inactive) throughout. Besides, the GI50 in the test with MOLT-4 is > 100 µM (inactive); in the test on NCI-H226, 12.7 µM (inactive); in the test with NCI-H23 it was > 100 µM (inactive); in the test on NCI/ADR-RES it was > 100 µM (inactive); in the test with OVCAR-3, > 100 µM (inactive); in the test with PC-3 it was > 100 µM (inactive). Moreover, the GI50 in the test on RPMI-8226, in the test with SK-OV-3, in the test on SN12C, in the test on SR, with UACC-257 and in the test on UACC-62 was > 100 µM (inactive) in each case.
On to `CCOP(=O)(OCC)C(Cc1ccccc1)N=C(c1ccccc1)c1ccccc1` (stereo not drawn), for which the GI50 is 16.2 µM (inactive) in the test with CAKI-1; 18 µM (inactive) in the test with EKVX; 11.2 µM (inactive) in the test on Hs-578T; 15.3 µM (inactive) in the test on M14; 13.9 µM (inactive) in the test with MCF7; 13.2 µM (inactive) in the test with MDA-MB-435. The GI50 is 4.93 µM (inactive) in the test on MOLT-4; 14.2 µM (inactive) in the test on NCI-H226; 12.7 µM (inactive) in the test on NCI-H23; 12.4 µM (inactive) with NCI-H522; 10.1 µM (inactive) in the test on NCI/ADR-RES; 14.5 µM (inactive) with OVCAR-3. In addition, the GI50 was 3.96 µM (inactive) in the test with PC-3; 25.4 µM (inactive) in the test on RPMI-8226; 15.2 µM (inactive) in the test on SK-OV-3; 16.7 µM (inactive) in the test with SN12C; 17.9 µM (inactive) with SR; 13.7 µM (inactive) with UACC-257. The GI50 with UACC-62 is 13.3 µM (inactive).
For `CNC(=O)CCC(NC(C)=O)C(=O)NC(Cc1ccc(NC(=O)CCCCC(C)=O)cc1)C(=O)NC(CCC(=O)NC)C(=O)NC` (stereo not drawn), the GI50 in the test on A498 was > 100 µM (inactive); with CAKI-1 it was > 100 µM (inactive); with EKVX, > 100 µM (inactive); with Hs-578T, 40.2 µM (inactive); in the test with M14, > 100 µM (inactive); with MCF7 it was > 100 µM (inactive). In addition, the GI50 in the test on MDA-MB-435, in the test with MOLT-4, in the test on NCI-H226, in the test on NCI-H23, in the test with NCI-H522 and in the test on NCI/ADR-RES was > 100 µM (inactive) throughout. Moreover, the GI50 in the test on OVCAR-3, in the test on PC-3, in the test with RPMI-8226, in the test on SK-OV-3, with SN12C and in the test with UACC-62 was > 100 µM (inactive) each time.
With `CC(C)CC(N)C(=O)O` (stereo not drawn), the GI50 in the test on A498, in the test with CAKI-1, with Hs-578T, in the test on M14, in the test with MCF7 and in the test with MDA-MB-435 was > 100 µM (inactive) throughout. For the same compound, the GI50 in the test with MOLT-4, with NCI-H226, in the test on NCI-H23, with NCI-H522, in the test with NCI/ADR-RES and with OVCAR-3 was > 100 µM (inactive) in each case. For the same compound, the GI50 with PC-3, with RPMI-8226, in the test with SK-OV-3, in the test with SN12C, in the test with UACC-257 and in the test on UACC-62 was > 100 µM (inactive) in each case.
For `O=C(CCCn1ccnc1[N+](=O)[O-])NCCn1ccnc1[N+](=O)[O-]`, the GI50 with CAKI-1, in the test with EKVX, with Hs-578T, in the test with M14, in the test on MCF7 and with MDA-MB-435 was > 100 µM (inactive) throughout. Moreover, the GI50 in the test with MOLT-4, in the test on NCI-H226, in the test on NCI-H23, with NCI-H522, in the test with NCI/ADR-RES and in the test with OVCAR-3 was > 100 µM (inactive) in each case. In addition, the GI50 in the test with PC-3, with RPMI-8226, with SK-OV-3, with SN12C, in the test on SR and with UACC-257 was > 100 µM (inactive) in each case. Also, in the test with UACC-62, the GI50 is > 100 µM (inactive).
